Experimental data published in BindingDB's records for doi:10.1016/j.ejmech.2023.115542 (University of Turin, 2023).
pIC50: −log10 of the molar value.

Test: Inhibition of NLRP3-dependent pyroptosis in PMA-differentiated human THP-1 cells assessed as inhibition of LPS/ATP-induced cell death pretreated for 4 hrs with LPS followed by incubation with compound for 1 hr and later treated with ATP for 1.5 hrs by LDH assay

CCOC(=O)Cn1nc(Cc2ccccc2Cl)oc1=O
pIC50: 5.81
